The values below are quoted from earlier work in US5973156A, “Piperidine and tetrahydropyridine derivatives” (Merck Sharp & Dome Ltd., priority 1995, dated 1999).

Series [1] relates to human 5-HT1D.spsb.α and 5-HT1D.spsb.β receptor subtypes.
For series [2] the following is noted: humans, therapeutic doses.

As for `CNS(=O)(=O)Cc1ccc2[nH]cc(CCN(C)C)c2c1` [sumatriptan], in series [1], the “discrimination between the human 5-HT1D.spsb.α and 5-HT1D.spsb.β receptor subtypes” value is recorded as “barely discriminates”. Further, the adverse cardiovascular events entry in series [2] was “certain adverse cardiovascular events”.
